The record followed here is patent US4931463A, “Oxetanones” (Hoffmann-La Roche Inc., priority 1987, dated 1990).

Like-named read-outs stand apart in the source and are kept apart here.

Series [1] deals with T1, pig pancreas lipase (Sus scrofa, UniProt P00591).
T1 sequence (P00591 1-450): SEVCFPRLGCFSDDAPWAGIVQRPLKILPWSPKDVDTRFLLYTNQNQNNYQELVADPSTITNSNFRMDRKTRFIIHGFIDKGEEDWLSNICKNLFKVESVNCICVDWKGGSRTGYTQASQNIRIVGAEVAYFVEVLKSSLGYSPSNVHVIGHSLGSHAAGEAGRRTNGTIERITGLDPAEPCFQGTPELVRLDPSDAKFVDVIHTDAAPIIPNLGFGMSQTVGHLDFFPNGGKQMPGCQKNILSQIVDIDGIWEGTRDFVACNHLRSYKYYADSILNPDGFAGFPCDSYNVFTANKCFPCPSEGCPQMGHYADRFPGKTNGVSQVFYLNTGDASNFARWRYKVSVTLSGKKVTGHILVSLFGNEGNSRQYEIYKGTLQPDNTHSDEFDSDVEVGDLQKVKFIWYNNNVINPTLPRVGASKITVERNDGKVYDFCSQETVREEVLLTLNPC
Put plainly: Inhibition of pancreas lipase, titrimetric registration of oleic acid liberated in the cleavage of triolein. The series is classed as biochemical. On the procedure:
To an emulsion which contains 1 mM of taurodeoxycholate, 9 mM of taurocholeate, 0.1 mM of cholesterol, 1 mM of egg lecithin, 15 mg/ml of BSA, 2 mM of Tris HCl, 100 mM of sodium chloride, 1 mM of calcium chloride and triolein as the substrate was added the compound of formula I dissolved in ethanol or dimethyl sulfoxide (10% of the emulsion volume) and the reaction was started by the addition of 100 μg (175 U) of pig pancreas lipase. The pH was held at 8 during the reaction by the addition of sodium hydroxide solution. The IC50 was calculated from the consumption of sodium hydroxide solution determined during 10 minutes. The IC50 was that concentration at which the lipase activity was inhibited to half of the maximum.

Series [2] relates to mice. Put plainly: Acute toxicity after single oral administration to mice. The series is classed as in vivo.
The mark [3] stands for this setting: pig pancreas lipase 100 μg (175 U), triolein substrate, pH 8, 10 minutes, concentration at which lipase activity was inhibited to half of the maximum, read-out: IC50 (converted).

Consider `C=CC[C@@H]1C(=O)O[C@H]1CC(CCCCCCCCCCC)OC(=O)[C@H](CC(C)C)NC=O` (mixture of isomers) [Example 2, 14, N-formyl-L-leucine 1-[(trans-3-allyl-4-oxo-2-oxetanyl)methyl]dodecyl ester], for which the IC50 in series [1] was 33.2 nM. Moreover, the “Toxicity (dose of the compound at which the animal survives)” value (shortened to “Toxicity”) in series [2] came out at 5000 mg/kg p.o.

For the compound `CCCCCC[C@@H]1C(=O)O[C@H]1CC(CCCC)OC(=O)[C@H](CC(C)C)NC=O` (mixture of isomers) [Example 5, N-formyl-L-leucine 1-[(trans-3-hexyl-4-oxo-2-oxetanyl]-methyl]pentyl ester], in series [1] (setting [3]), the IC50 was 503 nM.

Turning to `CCCCCCCCCCCC(C[C@@H]1OC(=O)[C@H]1CCCCCC)OC(=O)[C@@H](N)CC(C)C` (relative stereo) [Example 7, leucine 1-[(trans-3-hexyl-4-oxo-2-oxetanyl)methyl]dodecyl ester], the IC50 in series [1] (setting [3]) was 32100 nM.

In the case of `CCCCCCCCCCC[C@H](O)C[C@@H]1OC(=O)[C@H]1CCCCCC` (relative stereo) [Example 9 F.2., rac-trans-3-hexyl-4-(2-hydroxytridecyl)-2-oxetanone(2S,3S,4S:2R,3R,4R)], the IC50 in series [1] (setting [3]) was 240000 nM.

In the case of `CCCCCCCCCCCC(C[C@@H]1OC(=O)[C@H]1CC)OC(=O)[C@H](CC(C)C)NC=O` (single isomer, unassigned) [Example 2, 13a, N-formyl-L-leucine 1-[(trans-3-ethyl-4-oxo-2-oxetanyl)methyl]dodecyl ester], the IC50 in series [1] (setting [3]) is 15.9 nM.

On to `CCCCCCCC/C=C\CCCCCCC[C@@H](C[C@@H]1OC(=O)[C@H]1CC)OC(=O)[C@H](CC(C)C)NC=O` (single isomer, unassigned) [Example 2, 23a], for which, in series [1], the IC50 was 67.1 nM. Further, the “Toxicity” value in series [2] is 2000 mg/kg p.o.

For the compound `CCCCC/C=C\C/C=C\CCCCCCC[C@@H](C[C@@H]1OC(=O)[C@H]1CC)OC(=O)[C@H](CC(C)C)NC=O` [Example 2, 21], the IC50 in series [1] (setting [3]) was 38.5 nM.

Consider `CC[C@@H]1C(=O)O[C@H]1C[C@@H](OC(=O)[C@H](CC(C)C)NC=O)c1ccc(Oc2ccccc2)cc1` [Example 2, 25a, N-formyl-(S)-leucine (R)-α-[[(2S,3S)-3-ethyl-4-oxo-2-oxetanyl]methyl]-p-phenoxybenzyl ester], for which the IC50 in series [1] (setting [3]) was 22 nM.

For the compound `C=CCC[C@@H](C[C@@H]1OC(=O)[C@H]1CCCCCCCCCC)OC(=O)[C@H](CC(C)C)NC=O` [Example 2, 34, N-formyl-L-leucine (S)-1-[[(2S,3S)-3-decyl-4-oxo-2-oxetanyl]methyl]-4-pentenyl ester], in series [1], the IC50 was 288 nM. For the same compound, in series [2], the “Toxicity” value was 4000 mg/kg p.o.

For the compound `CCCCCCCCCCCCCCCCC[C@@H](C[C@@H]1OC(=O)[C@H]1CC)OC(=O)[C@H](CC(C)C)NC=O` [Example 4, 1, N-formyl-(S)-leucine (S)-1[[(2S,3S)-3-ethyl-4-oxo-2-oxetanyl]methyl]octadecyl ester], the IC50 in series [1] (setting [3]) is 210 nM.

For `CCCCCC[C@@H]1C(=O)O[C@H]1C[C@H](CCCC)OC(=O)[C@H](Cc1ccccc1)NC=O` [Example 6, 2, N-formyl-L-phenylalanine (S)-1-[[(2S,3S)-3-hexyl-4-oxo-2-oxetanyl]methyl]-4-pentyl ester], in series [1], the IC50 is 2320 nM.
